This passage reports inhibition results from patent US20060135589A1, “1h-Indazole-3-carboxamide compounds as cyclin dependent kinase (cdk) inhibitors” (Astex Technology, Inc., priority 2002, published 2006).

This test concerns the target T1, CDK2/CyclinA (Homo sapiens, UniProt P24941).
T1 construct: purchased Upstate Biotechnology
Description: Measurement of CDK2 kinase inhibitory activity (IC50), 33P-ATP / histone H1 filter assay. The class given is biochemical. The procedure:
Measurement of CDK2 Kinase Inhibitory Activity (IC50)
Compounds of the invention were tested for kinase inhibitory activity using the following protocol.
1.7 μl of active CDK2/CyclinA (Upstate Biotechnology, 10 U/μl) is diluted in assay buffer (250 μl of 10× strength assay buffer (200 mM MOPS pH 7.2, 250 mM β-glycerophosphate, 50 mM EDTA, 150 mM MgCl2), 11.27 μl 10 mM ATP, 2.5 μl 1M DTT, 25 μl 100 mM sodium orthovanadate, 708.53 μl H2O), and 10 μl mixed with 10 μl of histone substrate mix (60 μl bovine histone H1 (Upstate Biotechnology, 5 mg/ml), 940 μl H2O, 35 μCi γ^33P-ATP) and added to 96 well plates along with 5 μl of various dilutions of the test compound in DMSO (up to 2.5%). The reaction is allowed to proceed for 5 hours before being stopped with an excess of ortho-phosphoric acid (30 μl at 2%).
γ^33P-ATP which remains unincorporated into the histone H1 is separated from phosphorylated histone H1 on a Millipore MAPH filter plate. The wells of the MAPH plate are wetted with 0.5% orthophosphoric acid, and then the results of the reaction are filtered with a Millipore vacuum filtration unit through the wells. Following filtration, the residue is washed twice with 200 μl of 0.5% orthophosphoric acid. Once the filters have dried, 25 μl of Microscint 20 scintillant is added, and then counted on a Packard Topcount for 30 seconds.
Take `CS(=O)(=O)N1CCC(NC(=O)c2n[nH]c3ccccc23)CC1` [Example 69, 1H-Indazole-3-carboxylic acid (1-methanesulphonyl-piperidin-4-yl)-amide]: the inhibition – broadly, the drop in the measured response relative to a control, in per cent – at 50 µM is at least 50%.
For `O=C(Nc1ccc(S(=O)(=O)Nc2nccs2)cc1)c1n[nH]c2ccccc12` [Example 31], the inhibition at 50 µM is at least 50%.
For `O=C(Nc1ccc([N+](=O)[O-])cn1)c1n[nH]c2ccc(I)cc12` [Example 16, N-(5-nitro-pyridin-2-yl)-5-Iodo-1H-indazole-3-carboxamide], the inhibition at 50 µM was at least 50%.
The compound `NS(=O)(=O)c1ccc(NC(=O)c2n[nH]c3ccc([N+](=O)[O-])cc23)cc1` [Example 18, 5-Nitro-1H-indazole-3-carboxylic acid (4-sulphamoyl-phenyl)-amide] showed an inhibition at 50 µM of at least 50%.
The result for `CC(=O)NCc1ccc(NC(=O)c2n[nH]c3ccccc23)cc1` [Example 5, N-[4-(acetylaminomethyl)phenyl]-1H-indazole-3-carboxamide] reads at least 50%; that for `O=C(Nc1ccc(N2CCCC2=O)cc1)c1n[nH]c2ccccc12` [Example 6, N-[4-(2-oxopyrrolidin-1-yl)phenyl]-1H-indazole-3-carboxamide], at least 50%; that for `O=C(Nc1cnc2ccccc2c1)c1n[nH]c2ccc(I)cc12` [Example 41], at least 50%.
`O=C(Nc1ccccc1)c1n[nH]c2ccc([N+](=O)[O-])cc12` [Example 55] showed an inhibition at 50 µM of at least 50%.
The result for `CNS(=O)(=O)Cc1ccc(NC(=O)c2n[nH]c3ccc(NC(=O)NCCCl)cc23)cc1` [Example 63, 5-[3-(2-Chloro-ethyl)-ureido]-1H-indazole-3-carboxylic acid (4-methylsulphamoylmethyl-phenyl)-amide] reads at least 50%.
For the compound `Nc1ccc2[nH]nc(C(=O)Nc3ccccc3)c2c1` [Example 60, 5-Amino-1H-indazole-3-carboxylic acid phenylamide], the inhibition at 50 µM was at least 50%.
In the case of `O=C(Nc1ccccc1)c1n[nH]c2ccc(F)cc12` [Example 80], the inhibition at 50 µM was at least 50%.
`CCOC(=O)N1CCC(NC(=O)c2n[nH]c3ccc(Cl)cc23)CC1` [Example 38] returned an inhibition at 50 µM of at least 50%.
The result for `CN1CCN(c2ccc(CNC(=O)c3n[nH]c4ccc(Cl)cc34)cc2)CC1` [Example 46] reads at least 50%; that for `CC(=O)N1CCC(NC(=O)c2n[nH]c3ccccc23)CC1` [Example 68, 1H-Indazole-3-carboxylic acid (1-acetyl-piperidin-4-yl)-amide], at least 50%; that for `O=C(NC1CCNCC1)c1n[nH]c2ccccc12` [Example 67, 1H-Indazole-3-carboxylic acid piperidin-4-ylamide], at least 50%.
The result for `O=C(NC1CCNCC1)c1n[nH]c2ccc(I)cc12` [Example 64, 5-Iodo-1H-indazole-3-carboxylic acid piperidin-4-ylamide] reads at least 50%; that for `CC(C)(C)OC(=O)N1CCC(NC(=O)c2n[nH]c3ccccc23)CC1` [Example 57], at least 50%.
Regarding `CS(=O)(=O)c1cccc(NC(=O)c2n[nH]c3ccccc23)c1` [Example 9, N-[3-methanesulphonylphenyl]-1H-indazole-3-carboxamide], the inhibition at 50 µM is at least 50%.
`O=C(Nc1ccc(N2CCOCC2)cc1)c1n[nH]c2ccc(I)cc12` [Example 52] came in with an inhibition at 50 µM of at least 50%.
For the compound `O=C(NCc1ccccc1)c1n[nH]c2ccc(Cl)cc12` [Example 45], the inhibition at 50 µM is at least 50%.
For the compound `COC(=O)N1CCC(NC(=O)c2n[nH]c3ccc(Cl)cc23)C1` (centres unmarked) [Example 81, 3-[(5-Chloro-1H-indazole-3-carbonyl)-amino]-pyrrolidine-1-carboxylic acid methyl ester], the inhibition at 50 µM was at least 50%.
The result for `O=C(Nc1ccccc1)c1n[nH]c2ccc(Cl)cc12` [Example 49] reads at least 50%; that for `N#Cc1ccc(NC(=O)c2n[nH]c3ccc(I)cc23)cn1` [Example 48], at least 50%.
`CC(=O)NCc1ccc(NC(=O)c2n[nH]c3ccc(I)cc23)cc1` [Example 15, N-[4-(acetylaminomethyl)phenyl]-5-iodo-1H-indazole-3-carboxamide] yielded an inhibition at 50 µM of at least 50%.
The result for `O=C(Nc1ccccc1)c1n[nH]c2ccc(I)cc12` [Example 11, N-phenyl-5-iodo-1H-indazole-3-carboxamide] reads at least 50%; that for `O=C(Nc1ccc(N2CCOCC2)cc1)c1n[nH]c2ccccc12` [Example 54], at least 50%.
